Source: patent US8673882B2, “Inhibitors of autotaxin” (University of Tennessee Research Foundation, priority 2011, dated 2014)

Tests used:
[1] = test system: MM1 hepatocarcinoma cells; assay: Invasion of mesothelial cell monolayer by MM1 cells; type: cell-based, rat
From the text: (§1) Cancer metastasis is a complex process that cannon be accurately modeled in vitro. Models that utilize cellular monolayers for the invasion of carcinoma cell come the closest to the situation in vivo. Two different cell monolayers, mouse mesothelium and human vascular endothelium were used to examine the role of ATX in the invasion of MM1 hepatocarcinoma cells and the reduction of such invasion by the chemical compounds of the present application. The mesothelial monolayer is an accepted model for invasion of body cavities lined by serous cells whereas, the HUVEC monolayer is considered to be an in vitro model of hematogenous invasion of carcinomas.
(§2) Highly invasive MM1 cells originally isolated from the AH130 rat hepatoma cells were utilized in these studies. The cells were grown in suspension in DMEM supplemented with 10% fetal bovine serum, 2 mM glutamine, 100 units/ml penicillin and 10 μg/ml streptoinycin. Mesothelial cells were isolated and cultured from C57BL/6 mice. Human umbilical cord vascular endothelial cells (HUVEC) were obtained from VEC Technologies Inc., (Rensselaer, N.Y., USA) and were grown in MCDB-131 complete medium containing 10% fetal bovine serum. 90 μg/ml heparin, 10 ng/ml EGF, 1 μg/ml hydrocortisone, 0.2 mg/ml EndoGrowth supplement, 100 units/ml penicillin G, 100 μg/ml streptomycin and 25 μg/ml amphotericin B (all from VEC Technologies). Tumor cell invasion was performed by seeding 1.3×10^5 HUVECs (passage 7) into each well of a 12-well plate pre-coated with 0.2% gelatin (Sigma) and cultured for 2 days to form a confluent monolayer. Mesothelial cells harvested from two-three mice were initially plated in 6-well plates and grown to confluency in DMEM medium supplemented with 10% fetal bovine serum in the presence of 100 units/ml penicillin G and 10 μg/ml streptomycin. When confluent, the mesothelial cells were split into three equal aliquots (˜5×10^4 cells each) and plated to three wells of a 12-well plate and grown to confluence.
Invasion of MM1 cells of Example 53 was determined and the effect of compounds of the present application in reducing the invasion was determined. For all invasion assays, MM1 cells were pre-stained with 2 μg/ml calcein AM (Invitrogen, USA) for 2 h, rinsed once, and seeded at a density of 5×10^4 cells/well over the monolayers. […] The number of tumor cells that penetrated the monolayer was photographed under a NIKON TiU inverted microscope using phase-contrast and fluorescence illumination in a minimum of five non-overlapping fields at 100× magnification. The fluorescent images were overlayed on top of the phase contrast images using the Elements BR software (version 3.1x) and the invaded MM1 cells showing the characteristic flattened morphology in the plane of focus underneath the monolayer were counted. […]

[2] = test system: MM1 hepatocarcinoma cells; assay: Invasion of HUVEC monolayer by MM1 cells; type: cell-based, rat; settings: 1.5 μM LPC; FIG. 14
From the text: as §1, §2
Invasion of MM1 cells of Example 53 was determined and the effect of compounds of the present application in reducing the invasion was determined. For all invasion assays, MM1 cells were pre-stained with 2 μg/ml calcein AM (Invitrogen, USA) for 2 h, rinsed once, and seeded at a density of 5×10^4 cells/well over the monolayers. Tumor cells were left to invade the HUVEC monolayer for 24 h in MCDB-131 complete media containing 1% serum with or without addition of 1.5 μM LPC. MM1 cells were plated on the mesothelial monolayers in 2% fetal bovine serum-supplemented DMEM medium in the presence of 100 units/ml penicillin G and 10 μg/ml streptomycin with or without 1.5 μM LPC (5 μM for the mesothelium cells) and invasion was allowed to proceed for 20 h. The day after MM1 cell seeding, non-invaded tumor cells were removed by repeated five rinses of the HUVEC monolayer (three rinses for the mesothelial monolayers) with PBS (containing Ca^2+ and Mg^2+) followed by fixation with 10% buffered formalin. The number of tumor cells that penetrated the monolayer was photographed under a NIKON TiU inverted microscope using phase-contrast and fluorescence illumination in a minimum of five non-overlapping fields at 100× magnification. The fluorescent images were overlayed on top of the phase contrast images using the Elements BR software (version 3.1x) and the invaded MM1 cells showing the characteristic flattened morphology in the plane of focus underneath the monolayer were counted. […]

[3] = test system: breast and colon cancers; settings: xenograft models, Zhang et al 2009; cited from earlier work

In the case of `CCCCCCCCCCCCCc1ccc2cc(CP(=O)(OC)OC)ccc2c1` [Compound 33b, Dimethyl-6-tridecylnaphthalen-2-yl-methylphosphonate], the “MM1 cell invasion of the mesothelial monolayer” value ([1]; with LPC, FIG. 12 panel E) is reported as “inhibition” and the “LPC-dependent invasion of the HUVEC monolayer” value [2] is reported as “blockage”.

In the case of LPA bromophosphonate [LPA-BP], the “metastasis of breast and colon cancers” value [3] is listed as “inhibit the metastasis”.

For “lysophosphatidylcholine [LPC, reference compound]”, the “effect of LPC on invasion in the co-culture” value ([1]; FIG. 12d, mesothelial cell layers) was “increases invasion in a dose-dependent manner”.
